From patent US20180320177A1, “COMPOSITIONS AND METHODS FOR THE TREATMENT OF LIVER FIBROSIS” (UNIVERSITY OF CONNECTICUT, priority 2015, published 2018)
“Also recorded” adds a separate entry of the source.

Legend:
[1] = molecular target: T1, HMGB2 protein (Mus musculus, UniProt P30681); assay: Western blot of HMGB2 protein in liver of CCl4-treated mice; format: in vivo
T1 construct: Total protein lysates were prepared from livers and cells in lysis buffer; from tissue; host or cells: mouse liver (C57BL/6J, CCl4 with or without ICM)
T1 sequence (P30681 1-210): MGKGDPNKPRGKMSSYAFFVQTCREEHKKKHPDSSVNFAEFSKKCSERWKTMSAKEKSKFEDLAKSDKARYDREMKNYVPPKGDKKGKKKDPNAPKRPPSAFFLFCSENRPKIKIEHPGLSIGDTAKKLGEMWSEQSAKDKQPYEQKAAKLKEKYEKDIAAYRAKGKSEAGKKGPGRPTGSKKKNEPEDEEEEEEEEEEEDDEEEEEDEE
Method: Animal Care: All animal care and experimental procedures were approved by the Institutional Animal Care and Use Committee at the University of Connecticut. Shp^−/− mice were described previously. Hmgb2^−/− mice were obtained from Dr. Stella Tsirka at Stony Brook University. C57BL/6J mice were purchased from Jackson Laboratory. All mice were maintained on a 12-h light/dark cycle with free access to food and water unless otherwise indicated. For CCl4 treatment, CCl4 (Sigma) was dissolved in corn oil and administered to mice at a dose of 850 μl/kg BW by intraperitoneal injection (IP) twice a week for 6 or 10 weeks with or without ICM. Age-matched control mice were treated with a corn oil vehicle. For CCl4+ICM treatment, mice were treated with CCl4 for 2 weeks and then ICM (Department of Pharmaceutical Sciences at UConn) was dissolved in PEG (Sigma) and treated with mice (10 mg/kg) every day for 4 or 8 weeks in combination with CCl4. To induce overexpression of HMGB2 in liver, AAV8-Hmgb2 or a control AAV8-GFP was given to mice by tail vein injection at a dose of 5×10^10 GC. To knockdown HMGB2 in mouse livers, AAV-shHmgb2 or a control AAV-shGFP was delivered to mice at a dose of 2×10^10 GC by tail vein injection. One week later, mice injected with AAVs were treated with CCl4 or CCl4 +ICM as described above and sacrificed. […]

[2] = test system: pAKT and pERK1/2 activation; assay: pAKT and pERK1/2 activation and HMGB2 protein in primary stellate cells; format: cell-based, mouse; conditions: stellate cells (FIG. 6E)
Method: Western Blotting: Total protein lysates were prepared from livers and cells in lysis buffer containing 50 mM Tris, pH 8.0, 1% Nonidet™ P-40, 150 mM NaCl, 0.5% sodium deoxycholate, 0.1% SDS with protease inhibitors (Thermo Fisher Scientific) and subjected to immunoblotting. Nuclear and cytoplasmic subcellular fractions were prepared using NE-PER nuclear and cytoplasmic extraction reagents (Pierce) according to the manufacturer's instructions. The blot was incubated with a primary antibody, followed by a secondary antibody conjugated to horseradish peroxidase. ECL kit (Pierce) was used to detect the reactivity. The following antibodies were obtained from Cell Signaling Technology: HMGB2, HMGB1, AKT, p-AKT, mTOR, p-mTOR, ERK1/2, pERK1/2, Raptor, Rictor, p53, p21, p-Bad, Smad4, p-Smad2/3, Lamin A/C, a-SMA, MMP2, MMP9, TIMP1, RhoA, Rho-GTP, Cdc42, Rac1/2/3. Anti-HA antibody and anti-beta actin antibody were purchased from Sigma and Santa Cruz Biotechnology, respectively.
Primary Mouse Hepatic Stellate Cells (HSCs) isolation and in vitro activation: Primary mouse HSCs were isolated from 8 to 12 weeks old wild type or Hmgb2^−/− mice, as described in the art with modifications. Briefly, mice were anesthetized with ketamine/xylazine mixture. The liver was perfused with Hank's balanced salt solution (HBSS) supplemented with 0.5 mM EGTA through the cannulated portal vein, followed by perfusion with HBSS supplemented with 0.5 mg/ml pronase (Sigma) and HBSS with 0.14 mg/ml collagenase (Sigma). The liver was dissected out from the mouse and dissociated cells were dispersed gently in HBSS. Primary HSC was isolated by three-layer discontinuous density gradient centrifugation with 25% and 50% percoll (Sigma) and plated on non-coated culture dishes in DMEM supplemented with 10% FBS, 100 IU/ml penicillin, and 100 μg/ml streptomycin. For culture-activated HSC studies, the medium of primary HSCs was replaced every day up to 7 days. For PDGF treatment, primary HSC cells were serum starved for 24 hr and then treated with PDFG for 3 or 5 days. […]

[3] = test system: HMGB1 and HMGB2; conditions: neuroinflammation model; cited from earlier work
[4] = test system: TIC cells; assay: TIC cell spheroid assay; format: cell-based; conditions: TIC cells with stable HMGB2 knockdown (FIG. 7F)
Method: TIC cells were trypsinized into single cells and 1000 cells were suspended in serum free TIC medium with 1% methylcellulose supplemented with B27, 20 ng/ml EGF and 20 ng/ml FGF in each well of 96-well ultralow attachment plate.

## CC1(C)Oc2cc(O)ccc2C2C1=CCn1c(=O)n(-c3ccccc3)c(=O)n12 (stereo not shown) [ICM, inflachromene]
[1]; CCl4 mice treated with ICM, Western blot
  liver HMGB2 protein induced by CCl4: decreases; also recorded: blocked by ICM; also recorded: reduction in liver HMGB2 protein
[1]; mouse liver, CCl4+ICM (FIG. 16)
  selectivity HMGB2 protein versus HMGB1 protein: more selective to downregulate HMGB2 protein
[2]
  HMGB2 protein: reduces
  pAKR activation: reduces
  pERk1/2 activation: reduces
[3]
  inhibitor profile HMGB1 / HMGB2: dual inhibitor of both HMGB1 and HMGB2

## shHMGB2: small hairpin RNA against HMGB2 (SEQ ID NO: 8), delivered by AAV or lentivirus (CCGGGCTCAACATTAGCTTCAGTATCTCGAGATACTGAAGCTAATGTTGAGCTTTTTG)
[4]
  spheroid size: decreased spheroid size
